Experimental data taken from PubChem BioAssay (NCI).
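GI50 = concentration required for 50% inhibition of growth. The concentration for full growth arrest is given as TGI.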

Key:
Test in all cases: inhibition of tumour cell growth, NCI panel, 384-well format
SNB-75 CNS = test system: SNB-75 CNS
RPMI-8226 leukemia = test system: RPMI-8226 leukemia
786-0 renal = test system: 786-0 renal
UACC-257 melanoma = test system: UACC-257 melanoma
CAKI-1 renal = test system: CAKI-1 renal
HOP-62 NSCLC = test system: HOP-62 NSCLC
SK-OV-3 ovarian = test system: SK-OV-3 ovarian
PC-3 prostate = test system: PC-3 prostate
NCI-H522 lung = test system: NCI-H522 lung
T-47D breast = test system: T-47D breast
HCT-15 colon = test system: HCT-15 colon
SN12C renal = test system: SN12C renal
HCT-116 colon = test system: HCT-116 colon

| Structure (SMILES) | GI50 (SNB-75 CNS) [µM] | TGI (SNB-75 CNS) [µM] | GI50 (RPMI-8226 leukemia) [µM] | TGI (RPMI-8226 leukemia) [µM] | GI50 (786-0 renal) [µM] | TGI (786-0 renal) [µM] | GI50 (UACC-257 melanoma) [µM] | TGI (UACC-257 melanoma) [µM] | GI50 (CAKI-1 renal) [µM] | TGI (CAKI-1 renal) [µM] | GI50 (HOP-62 NSCLC) [µM] | TGI (HOP-62 NSCLC) [µM] | GI50 (SK-OV-3 ovarian) [µM] | TGI (SK-OV-3 ovarian) [µM] | GI50 (PC-3 prostate) [µM] | TGI (PC-3 prostate) [µM] | GI50 (NCI-H522 lung) [µM] | TGI (NCI-H522 lung) [µM] | GI50 (T-47D breast) [µM] | TGI (T-47D breast) [µM] | also measured |
| --- | --- | --- | --- | --- | --- | --- | --- | --- | --- | --- | --- | --- | --- | --- | --- | --- | --- | --- | --- | --- | --- |
| COc1ncc(-c2nc3c(n2C(C)C)[C@H](c2ccc(Cl)cc2)N(c2cc(Cl)cn(C)c2=O)C3=O)c(OC)n1 | > 52.2 | > 100 | 20.7 | 42.7 | 62.7 | > 100 | 17.5 | 37.3 | 6.27 | > 64.1 | > 51 | > 100 | > 76 | > 100 | 39.7 | > 100 | 48.4 | > 100 | 34.3 | > 91.8 | GI50 (HCT-15 colon): 36 µM; TGI (HCT-15 colon): > 100 µM; GI50 (SN12C renal): > 93.2 µM; TGI (SN12C renal): > 100 µM; GI50 (HCT-116 colon): 18.2 µM; TGI (HCT-116 colon): > 100 µM |
| O=C(Nc1cnn2ccc(N3CCC[C@@H]3c3cc(F)ccc3F)nc12)N1CC[C@H](O)C1 | > 100 | > 100 | > 100 | > 100 | > 100 | > 100 | > 100 | > 100 | > 100 | > 100 | > 100 | > 100 | > 100 | > 100 | > 100 | > 100 | > 100 | > 100 | > 100 | > 100 | GI50 (HCT-15 colon): > 100 µM; TGI (HCT-15 colon): > 100 µM; GI50 (SN12C renal): > 100 µM; TGI (SN12C renal): > 100 µM; GI50 (HCT-116 colon): > 100 µM; TGI (HCT-116 colon): > 100 µM |
